{"source": "patent US7741281B2", "about": "“Hepatitis C virus inhibitors” (Bristol-Myers Squibb Company, priority 2005, dated 2010)", "key": {"[1]": {"target": "T1, HCV NS3/4A protease complex, BMS strain (UniProt P27958, species not given/STRAIN_BMS)", "T1 construct": "for H77 and J4L6S; fused on or other part: Three-lysine solubilizing tail at the end of NS4A, for the H77 and J4L6S constructs; Purification on Ni-NTA and the pET21b vector imply a His tag", "T1 sequence (P27958 1027-1657, change not shown, one chain of several)": "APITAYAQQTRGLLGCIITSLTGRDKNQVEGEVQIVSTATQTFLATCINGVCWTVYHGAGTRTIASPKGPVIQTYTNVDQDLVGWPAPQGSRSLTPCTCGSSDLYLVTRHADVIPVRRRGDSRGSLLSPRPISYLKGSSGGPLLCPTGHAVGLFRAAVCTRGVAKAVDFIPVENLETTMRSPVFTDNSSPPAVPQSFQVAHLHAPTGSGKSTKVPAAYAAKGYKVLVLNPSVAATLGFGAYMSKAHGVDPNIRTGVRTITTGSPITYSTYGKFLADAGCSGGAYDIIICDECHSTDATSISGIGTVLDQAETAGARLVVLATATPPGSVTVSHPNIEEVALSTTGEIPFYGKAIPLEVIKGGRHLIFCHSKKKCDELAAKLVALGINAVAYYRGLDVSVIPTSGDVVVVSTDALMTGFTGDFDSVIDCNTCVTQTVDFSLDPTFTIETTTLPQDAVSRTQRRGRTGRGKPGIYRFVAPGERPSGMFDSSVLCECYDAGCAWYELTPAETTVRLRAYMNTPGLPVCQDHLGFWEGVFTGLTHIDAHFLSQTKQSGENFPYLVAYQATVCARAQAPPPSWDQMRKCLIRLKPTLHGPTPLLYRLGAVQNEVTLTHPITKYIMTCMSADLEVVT", "assay": "FRET peptide assay to monitor HCV NS3/4A proteolytic activity (BMS strain)", "type": "biochemical, HCV genotype 1a", "description": "(§1) HCV NS3 protease complexes, derived from the BMS strain, H77 strain or J4L6S strain, were generated, as described below. These purified recombinant proteins were generated for use in a homogeneous assay (see below) to provide an indication of how effective compounds of the present disclosure would be in inhibiting HCV NS3 proteolytic activity.\nSerum from an HCV-infected patient was obtained from Dr. T. Wright, San Francisco Hospital. An engineered full-length cDNA (compliment deoxyribonucleic acid) template of the HCV genome (BMS strain) was constructed from DNA fragments obtained by reverse transcription-PCR (RT-PCR) of serum RNA (ribonucleic acid) and using primers selected on the basis of homology between other genotype 1a strains. From the determination of the entire genome sequence, a genotype 1a was assigned to the HCV isolate according to the classification of Simmonds et al. (See P Simmonds, K A Rose, S Graham, S W Chan, F McOmish, B C Dow, E A Follett, P L Yap and H Marsden, J. Clin. Microbiol., 31(6), 1493-1503 (1993)). […] The infectious clones, H77 (1a genotype) and J4L6S (1b genotype) were obtained from R. Purcell (NIH) and the sequences are published in Genbank (AAB67036, see Yanagi, M., Purcell, R. H., Emerson, S. U. and Bukh, J. Proc. Natl. Acad. Sci. U.S.A. 94(16), 8738-8743 (1997); AF054247, see Yanagi, M., St Claire, M., Shapiro, M., Emerson, S. U., Purcell, R. H. and Bukh, J, Virology 244 (1), 161-172. (1998)).\nThe H77 and J4L6S strains were used for production of recombinant NS3/4A protease complexes. DNA encoding the recombinant HCV NS3/4A protease complex (amino acids 1027 to 1711) for these strains were manipulated as described by P. Gallinari et al. (see Gallinari P, Paolini C, Brennan D, Nardi C, Steinkuhler C, De Francesco R. Biochemistry. 38(17):5620-32, (1999)). Briefly, a three-lysine solubilizing tail was added at the 3′-end of the NS4A coding region. The cysteine in the P1 position of the NS4A-NS4B cleavage site (amino acid 1711) was changed to a glycine to avoid the proteolytic cleavage of the lysine tag. Furthermore, a cysteine to serine mutation was introduced by PCR at amino acid position 1454 to prevent the autolytic cleavage in the NS3 helicase domain. The variant DNA fragment was cloned in the pET21b bacterial expression vector (Novagen) and the NS3/4A complex was expressed in Escherichia. coli strain BL21 (DE3) (Invitrogen) following the protocol described by P. Gallinari et al. (see Gallinari P, Brennan D, Nardi C, Brunetti M, Tomei L, Steinkuhler C, De Francesco R., J Virol. 72(8):6758-69 (1998)) with modifications. Briefly, the NS3/4A protease complex expression was induced with 0.5 millimolar (mM) Isopropyl β-D-1-thiogalactopyranoside (IPTG) for 22 hours (h) at 20° C. A typical fermentation (1 Liter (L)) yielded approximately 10 grams (g) of wet cell paste. The cells were resuspended in lysis buffer (10 mL/g) consisting of 25 mM N-(2-Hydroxyethyl)Piperazine-N′-(2-Ethane Sulfonic acid) (HEPES), pH 7.5, 20% glycerol, 500 mM Sodium Chloride (NaCl), 0.5% Triton X-100, 1 microgram/milliliter (“μg/mL”) lysozyme, 5 mM Magnesium Chloride (MgCl2), 1 μg/ml DnaseI, 5 mM β-Mercaptoethanol (βME), Protease inhibitor-Ethylenediamine Tetraacetic acid (EDTA) free (Roche), homogenized and incubated for 20 minutes (min) at 4° C. The homogenate was sonicated and clarified by ultra-centrifugation at 235000 g for 1 h at 4° C. Imidazole was added to the supernatant to a final concentration of 15 mM and the pH adjusted to 8.0. The crude protein extract was loaded on a Nickel-Nitrilotriacetic acid (Ni-NTA) column pre-equilibrated with buffer B (25 mM HEPES, pH 8.0, 20% glycerol, 500 mM NaCl, 0.5% Triton X-100, 15 mM imidazole, 5 mM βME). The sample was loaded at a flow rate of 1 mL/min. The column was washed with 15 column volumes of buffer C (same as buffer B except with 0.2% Triton X-100). The protein was eluted with 5 column volumes of buffer D (same as buffer C except with 200 mM Imidazole). […]"}, "[2]": {"target": "T2, HCV NS3/4A protease complex, J4L6S strain (Hepatitis C virus genotype 1b, UniProt O92972, C1454S/C1711G)", "T2 construct": "recombinant HCV NS3/4A protease complex (amino acids 1027 to 1711) for these strains; His tag (inferred from pET21b vector and Ni-NTA purification); made in house; host or cells: Escherichia coli BL21 (DE3), pET21b", "T2 sequence (O92972 1027-1711 C1454S/C1711G, one chain of several)": "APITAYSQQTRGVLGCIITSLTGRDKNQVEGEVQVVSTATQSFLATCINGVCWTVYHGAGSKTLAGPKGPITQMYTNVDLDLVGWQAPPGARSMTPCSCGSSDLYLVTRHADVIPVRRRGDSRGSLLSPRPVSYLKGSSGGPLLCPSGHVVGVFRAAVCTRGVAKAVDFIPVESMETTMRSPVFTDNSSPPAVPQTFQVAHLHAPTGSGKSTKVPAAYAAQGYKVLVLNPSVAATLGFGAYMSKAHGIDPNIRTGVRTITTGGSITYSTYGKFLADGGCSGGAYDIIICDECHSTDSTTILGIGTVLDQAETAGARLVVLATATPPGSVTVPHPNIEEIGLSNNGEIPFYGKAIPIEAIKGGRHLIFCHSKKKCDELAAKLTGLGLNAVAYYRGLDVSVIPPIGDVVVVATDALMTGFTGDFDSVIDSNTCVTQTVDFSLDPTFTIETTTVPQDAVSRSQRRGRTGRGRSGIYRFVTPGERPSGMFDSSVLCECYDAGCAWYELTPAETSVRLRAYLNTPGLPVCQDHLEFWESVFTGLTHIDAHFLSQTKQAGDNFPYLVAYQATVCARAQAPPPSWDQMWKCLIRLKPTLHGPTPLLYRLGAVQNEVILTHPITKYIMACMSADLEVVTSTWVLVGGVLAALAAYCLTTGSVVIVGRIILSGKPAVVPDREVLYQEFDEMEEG", "assay": "FRET peptide assay to monitor HCV NS3/4A proteolytic activity (J4L6S strain)", "type": "biochemical, HCV genotype 1b", "description": "as §1\nSerum from an HCV-infected patient was obtained from Dr. T. Wright, San Francisco Hospital. An engineered full-length cDNA (compliment deoxyribonucleic acid) template of the HCV genome (BMS strain) was constructed from DNA fragments obtained by reverse transcription-PCR (RT-PCR) of serum RNA (ribonucleic acid) and using primers selected on the basis of homology between other genotype 1a strains. From the determination of the entire genome sequence, a genotype 1a was assigned to the HCV isolate according to the classification of Simmonds et al. (See P Simmonds, K A Rose, S Graham, S W Chan, F McOmish, B C Dow, E A Follett, P L Yap and H Marsden, J. Clin. Microbiol., 31(6), 1493-1503 (1993)). […]"}}, "note": "Read-outs that look alike come from different tables or passages of the source.", "data": [{"smiles": "COc1c(O[C@@H]2C[C@H]3C(=O)N[C@]4(C(=O)NS(=O)(=O)C5CC5)C[C@H]4/C=C\\CCCCC[C@H](NC(=O)OC(C)(C)C)C(=O)N3C2)ccc2c(Cl)nccc12", "note": "[Compound 3]", "values": [{"measurement": "IC50", "setting": "[1]; BMS strain, read-out: IC50 against the NS3/4A BMS strain in the enzyme assay", "result": 2.8, "unit": "nM"}, {"measurement": "IC50", "setting": "[1]; NS3/4A BMS strain, read-out: IC50 Activity Range", "result": "< 100", "unit": "nM"}, {"measurement": "IC50", "setting": "[2]", "result": 0.47, "unit": "nM"}]}]}
